These results are taken from PMC11752523, “Effect of Chirality and Amphiphilicity on the Antimicrobial Activity of Tripodal Lysine-Based Peptides” (ACS Applied Bio Materials, 2025).

Series [1] deals with L929 murine fibroblast cells. The series can be described thus: MTT cell viability (cytocompatibility) assay. The class given is cell-based. The note with it: L929 murine fibroblasts, after 48 h, n = 3. As to the method:
L929 murine fibroblast cells (ECACC General Cell Collection) were grown in Dulbecco’s modified Eagle’s medium (DMEM) supplemented with 10% fetal bovine serum (FBS), 20 mM HEPES, and 1% GlutaMAX. The cells were maintained at pH 7.4, 37 °C, and 5% CO2 in 25 cm^2 cell culture flasks.
Assays were conducted as described previously.[23]
To be of utility as practical antimicrobials, bioactive molecules must show selective activity compared to their toxicity toward mammalian cells. The cytocompatibility of our peptides was investigated by a cell metabolic activity assay using MTT [3-(4,5-dimethylthiazol-2-yl)-2,5-diphenyltetrazolium bromide] assays using L929 murine fibroblast cell lines.
Figure 6 Cell viability data (with L929 murine fibroblasts) of tripodal peptides: (a) TP, (b) DTP, (c) FTP, and (d) FDTP. The error bar corresponds to the standard deviation of the value from the mean (n = 3, *p < 0.05, **p < 0.01 by performing the Anova statistical test).

The test system of series [2] is human red blood cells (hRBCs). The note with it: 0.5% (v/v) hRBCs in PBS, peptide 0–0.1 wt %, 1 h, hemoglobin at 414 nm, normalised to 0.1% Triton X-100; mean of three independent experiments.
The test system of series [3] is Pseudomonas aeruginosa (NCTC 13437), clinical multidrug-resistant isolate.
Series [4] concerns E. coli O157:H7 strain EDL933.
Series [5] is described as follows: Critical aggregation concentration by ANS fluorescence probe assay. The conditions noted are these: emission 486 nm, breakpoint of I/I0 vs log(c/wt %), aqueous solution in ultrapure water, pH 6.5. The class given is physicochemical. As to the method: Fluorescence experiments were carried out as described previously.[35]
To determine the CAC value of individual peptides, the results were plotted as I/I0 versus log(c/wt %), where I indicates the maximum fluorescence intensity of ANS at a given sample concentration and I0 denotes the peak intensity for the ANS solution without peptide.
Critical aggregation concentration (CAC) values of the tripodal peptides were obtained from fluorescence probe assays using 8-anilo-1-naphthalenesulfonic acid (ANS).

The subject of a further series is S. aureus (ATCC 12600). The conditions noted are these: ATCC 12600, 24 h.
Series [6] concerns Salmonella enterica serovar Typhimurium. The note with it: 24 h.
Series [7] can be described thus: Cryo-TEM imaging of self-assembled nanostructure. The conditions noted are these: 1 wt % aqueous solutions, above CAC. Type of series: physicochemical. As to the method:
Imaging was carried out as described previously.[35],[75]
To examine the morphology of the self-assembled nanostructure of these three arm trifunctional peptides, cryo-TEM imaging was performed for 1 wt % solutions, above the measured CAC values. […] In many cases, these structures are deposited on the lacey carbon grid in preference to, or in addition to, the vitrified grid holes.

The subject of another series is Klebsiella aerogenes. The note with it: 24 h.
The next series deals with E. coli EDL933. Description: SEM imaging of peptide-treated bacteria. The class given is cell-based, Escherichia coli. The note with it: E. coli EDL933, peptide at MBC (31.25 μg/mL), 1 h at 37 °C.
Series [8] relates to E. coli EDL933 bacterial membrane. The series can be described thus: Bacteria live/dead (DMAO/EthD-III) staining, fluorescence microscopy. The note with it: E. coli EDL933 treated at MBC for 1 h at 37 °C; DMAO green / EthD-III red. The class given is cell-based, Escherichia coli. As to the method:
Dual staining of peptide-treated bacteria, to detect potential membrane disruption,[80] was performed using a bacteria live/dead staining kit (PromoKine). This process involves incubating samples with fluorescent, nucleic acid dyes (DMAO, green, and EthD-III, red) that, respectively, are either able or unable to cross the bacterial membrane. […] Next, they were incubated with set volumes of both dyes for 15 min at room temperature. Slides were mounted using 5 μL of the stained solution onto glass coverslips and observed under a Nikon Eclipse Ti inverted microscope using a 10× objective. Images of different treatments, including controls were captured and compared.
Figure 8 DMAO/EtD-III stained images showing the peptide effects on the integrity of the bacterial membrane. Fluorescence microscopy was used to visualize DMAO and EtD-III dyes binding to the bacterial DNA. In this experiment, E. coli EDL933 was incubated with peptides at their minimum bactericidal concentration (MBC) for 1 h at 37 °C, followed by staining with a bacteria live/dead staining kit (PromoKine). Cells with disrupted membranes are stained red (EtD-III), while cells with intact membranes are stained green (DMAO).

Where [9] appears, read: P. aeruginosa NCTC13437, 24 h incubation, 5 × 10^6 CFU/mL, absorbance 600 nm, mean of three independent experiments.
Where [10] appears, read: P. aeruginosa NCTC13437, 24 h incubation, aliquots plated on MHA, no viable colonies.
The mark [11] stands for this setting: E. coli O157:H7 EDL933, 24 h incubation, 5 × 10^6 CFU/mL, absorbance 600 nm, mean of three independent experiments.
The mark [12] stands for this setting: E. coli O157:H7 EDL933, 24 h incubation, aliquots plated on MHA, no viable colonies.

As usually defined, the MIC is the least concentration at which growth counts as inhibited. Low readings indicate a more susceptible organism, high ones a less susceptible organism. By MBC is commonly meant the lowest tested concentration that kills the bacteria rather than only halting them. Lower therefore signals greater bactericidal potency.

Each structure is given as a SMILES string. ≈ marks a conversion by molar mass, not a printed value. Entries after “also recorded” stand apart in the source; their conditions may differ. Like-named read-outs stand apart in the source and are kept apart here. Numbered stars: 1 amine (or outer) side, 2 acyl side, 3 side chain; on linkers, the order of the positions; unused ones are H or OH. Bridge positions count the residues as written; N and C are the ends. Square brackets hold non-standard residues; d marks the D form. Side chains are listed from the residue outwards. Peptide text beside a SMILES is read from it. * marks the point of attachment. d(εLys) = N[C@H](CCCCN[*:1])C(=O)[*:2]; εLys = N[C@@H](CCCCN[*:1])C(=O)[*:2]; Fmoc = O=C(OCC1c2ccccc2-c2ccccc21)*; X1 = CC[C@H](C)CCCCC(=O)*; Dab = NCC[C@H](N)C(=O)O

For the molecule `NCCCC[C@@H](N)C(=O)N[C@H](CCCCN)C(=O)N[C@@H](Cc1ccc(O)cc1)C(=O)NCCCC[C@H](NC(=O)[C@H](Cc1ccc(O)cc1)NC(=O)[C@@H](CCCCN)NC(=O)[C@H](N)CCCCN)C(=O)N[C@@H](Cc1ccc(O)cc1)C(=O)N[C@H](CCCCN)C(=O)N[C@H](CCCCN)C(N)=O` [DTP, (kkY)3K] (H-[dK][dK]YK([Tyr-dK-dK])Y[dK][dK]-NH2), the “Cell viability / cytotoxicity (MTT)” value in series [1] was “nor do they or reduce the viability of fibroblasts”. In addition, the “Hemolysis of hRBCs” value in series [2] is given as “did not lyse hRBCs”. For the same molecule, the MIC in series [3] (setting [9]) is more than 1000 µg/mL; in series [4] (setting [11]), 500 µg/mL (≈ 356 µM); in the series on S. aureus (ATCC 12600) it was more than 1000 µg/mL; in series [6], more than 1000 µg/mL. For the same molecule, the minimum bactericidal concentration (MBC) in series [3] (setting [10]) is more than 1000 µg/mL; in series [4] (setting [12]), 1000 µg/mL (≈ 712 µM); in the series on S. aureus (ATCC 12600), more than 1000 µg/mL; in [6], more than 1000 µg/mL. The “Critical aggregation concentration (CAC)” value in [5] stood at 0.0069 ± 0.002 wt %. The “Morphology of self-assembled nanostructure (cryo-TEM)” value (“Morphology … (cryo-TEM)” for short) in [7] was “irregular globular aggregates”.

For `NCCCC[C@@H](NC(=O)[C@@H](CCCCN)NC(=O)[C@H](Cc1ccc(O)cc1)NC(=O)[C@H](CCCCNC(=O)[C@H](Cc1ccc(O)cc1)NC(=O)[C@@H](CCCCN)NC(=O)[C@H](N)CCCCNC(=O)OCC1c2ccccc2-c2ccccc21)NC(=O)[C@H](Cc1ccc(O)cc1)NC(=O)[C@@H](CCCCN)NC(=O)[C@H](N)CCCCNC(=O)OCC1c2ccccc2-c2ccccc21)C(N)=O` [FDTP, Fmoc-(kkY)3K] (H-[dK](Fmoc)[dK]YK([Tyr-dK-d(εLys)-Fmoc])Y[dK][dK]-NH2), the “Cell viability / cytotoxicity (MTT)” value in series [1] was “death of fibroblasts; also recorded: cytotoxicity at the two highest concentrations studied”. For the same molecule, the MBC was 62.5 µg/mL (≈ 33.8 µM) with Klebsiella aerogenes; 250 µg/mL (≈ 135 µM) in series [3] (setting [10]); 31.25 µg/mL (≈ 16.9 µM) in series [4] (setting [12]); 62.5 µg/mL (≈ 33.8 µM) in the series with S. aureus (ATCC 12600); 500 µg/mL (≈ 271 µM) in series [6]. For the same molecule, the MIC against Klebsiella aerogenes worked out at 62.5 µg/mL (≈ 33.8 µM); in series [3] (setting [9]), 125 µg/mL (≈ 67.6 µM); in series [4] (setting [11]), 15.62 µg/mL (≈ 8.45 µM); against S. aureus (ATCC 12600) it was 31.2 µg/mL (≈ 16.9 µM); in series [6], 250 µg/mL (≈ 135 µM). The “Hemolysis of hRBCs” value in [2] is listed as “greater leakage of hRBCs”. Moreover, the “Bacterial surface morphology by SEM” value in the series with E. coli EDL933 is given as “Significant disruption of the surface of the bacteria”; with E. coli EDL933 (listed as FTDP), “collapsed shapes”. Moreover, the “Effect on integrity of the bacterial membrane (live/dead staining)” value in series [8] is on record as “rapid, membrane-targeting effects”. In series [5], the “Critical aggregation concentration (CAC)” value is 0.0123 ± 0.003 wt %. In series [7], the “Morphology … (cryo-TEM)” value is on record as “irregular globular aggregates”.

For `NCCCC[C@H](NC(=O)[C@H](CCCCN)NC(=O)[C@H](Cc1ccc(O)cc1)NC(=O)[C@H](CCCCNC(=O)[C@H](Cc1ccc(O)cc1)NC(=O)[C@H](CCCCN)NC(=O)[C@@H](N)CCCCNC(=O)OCC1c2ccccc2-c2ccccc21)NC(=O)[C@H](Cc1ccc(O)cc1)NC(=O)[C@H](CCCCN)NC(=O)[C@@H](N)CCCCNC(=O)OCC1c2ccccc2-c2ccccc21)C(N)=O` [FTP, Fmoc-(KKY)3K] (H-K(Fmoc)KYK([Tyr-Lys-εLys-Fmoc])YKK-NH2), the MBC in the series on Klebsiella aerogenes worked out at 62.5 µg/mL (≈ 33.8 µM); in series [3] (setting [10]), 250 µg/mL (≈ 135 µM); in [4] (setting [12]), 125 µg/mL (≈ 67.6 µM); against S. aureus (ATCC 12600), 250 µg/mL (≈ 135 µM); in [6] it was 500 µg/mL (≈ 271 µM). The MIC against Klebsiella aerogenes was found to be 62.5 µg/mL (≈ 33.8 µM); in series [3] (setting [9]) it was 125 µg/mL (≈ 67.6 µM); in [4] (setting [11]) it was 62.5 µg/mL (≈ 33.8 µM); against S. aureus (ATCC 12600), 125 µg/mL (≈ 67.6 µM); in series [6] it was 250 µg/mL (≈ 135 µM). Besides, in series [8], the “Effect on integrity of the bacterial membrane (live/dead staining)” value was “rapid, membrane-targeting effects”. The “Critical aggregation concentration (CAC)” value in [5] is recorded as 0.0113 ± 0.005 wt %. Also, the “Morphology … (cryo-TEM)” value in series [7] is listed as “sheet-like structures”.

For the molecule `NCCCC[C@H](NC(=O)[C@H](CCCCN)NC(=O)[C@H](Cc1ccc(O)cc1)NC(=O)[C@H](CCCCNC(=O)[C@H](Cc1ccc(O)cc1)NC(=O)[C@H](CCCCN)NC(=O)[C@@H](N)CCCCN)NC(=O)[C@H](Cc1ccc(O)cc1)NC(=O)[C@H](CCCCN)NC(=O)[C@@H](N)CCCCN)C(N)=O` [TP, (KKY)3K] (H-KKYK([Tyr-Lys-Lys])YKK-NH2), in series [1], the “Cell viability / cytotoxicity (MTT)” value is listed as “nor do they or reduce the viability of fibroblasts”. Further, in [2], the “Hemolysis of hRBCs” value is reported as “did not lyse hRBCs”. Further, the MIC in series [4] (setting [11]) was more than 1000 µg/mL. This molecule displayed an MBC in series [4] (setting [12]) of more than 1000 µg/mL. For the same molecule, the “Critical aggregation concentration (CAC)” value in series [5] amounted to 0.0065 ± 0.004 wt %. The “Morphology … (cryo-TEM)” value in series [7] is listed as “irregular globular aggregates”.

`CC[C@H](C)CCCCC(=O)N[C@@H](CCN)C(=O)N[C@H](C(=O)N[C@@H](CCN)C(=O)N[C@H]1CCNC(=O)[C@H]([C@@H](C)O)NC(=O)[C@H](CCN)NC(=O)[C@H](CCN)NC(=O)[C@H](CC(C)C)NC(=O)[C@@H](Cc2ccccc2)NC(=O)[C@H](CCN)NC1=O)[C@@H](C)O` [polymyxin B, reference compound] (X1-[Dab]T[Dab][Dab][Dab][dF]L[Dab][Dab]T; lactam 4-C (inferred); N-terminus assumed): the MBC with Klebsiella aerogenes was 6.25 µg/mL (≈ 5.19 µM); in series [3] (NCTC 13437, 24 h), 25 µg/mL (≈ 20.8 µM); in [4] (O157:H7, 24 h) it was 6.25 µg/mL (≈ 5.19 µM); with S. aureus (ATCC 12600), more than 100 µg/mL; in series [6], 12.5 µg/mL (≈ 10.4 µM). Besides, the MIC in the series on Klebsiella aerogenes is 3.12 µg/mL (≈ 2.59 µM); in series [3] (NCTC 13437, 24 h), 6.25 µg/mL (≈ 5.19 µM); in series [4] (O157:H7, 24 h) it was 3.12 µg/mL (≈ 2.59 µM); against S. aureus (ATCC 12600), more than 100 µg/mL; in [6] it was 6.25 µg/mL (≈ 5.19 µM).
